Test results published in US20250099474A1 (priority 2022, published 2025).

Test system: SARS-CoV-2
Assay: Phase 2/3 study, Phase 2b Part: score of 12 COVID-19 symptoms per unit time
Assay type: in vivo, human
Protocol: The primary endpoints of Phase 2b Part were the time-weighted average change in the total score of 12 COVID-19 symptoms per unit time from the start of the first administration (Day 1) to 120 hours (Day 6), and the change from baseline in SARS-CoV-2 virus titer on Day 4, in mild/moderate SARS-CoV-2-infected patients, and the clinical improvement and the antiviral effect of the active drug were confirmed.
The administration of the active drug is repeated oral administration once a day for 5 days. The 375/125 mg group received 375 mg on Day 1 as a loading dose and 125 mg on Days 2 to 5 as a maintenance dose. The 750/250 mg group received 750 mg on Day 1 as a loading dose and 250 mg on Days 2 to 5 as a maintenance dose.
The primary efficacy endpoints of Phase 2b Part for mild/moderate SARS-CoV-2-infected patients were the time-weighted average change in the total score of 12 COVID-19 symptoms per unit time from the start of the first administration (Day 1) to 120 hours (Day 6), and the change from baseline in SARS-CoV-2 virus titer on Day 4. The total score of 12 COVID-19 symptoms is the sum of the scores determined by evaluation in four grades (0: none, 1: mild, 2: moderate, 3: severe) in the subject daily records for each of the 12 COVID-19 symptoms (low energy and tiredness, muscle or body aches, headache, chills or shivering, feeling hot or feverish, stuffy and runny nose, sore throat, cough, shortness of breath (difficulty breathing), nausea, vomiting, diarrhea).
Pairwise comparison was performed between each active drug dose group and the placebo group. […] Pairwise comparison was performed between each active drug dose group and the placebo group.
The results of classifying the twelve COVID-19 symptoms shown in the above (2-a) into 5 types (acute symptoms, major clinical symptoms, respiratory symptoms, systemic symptoms, and gastrointestinal symptoms) and analyzing the same (ITT population) are shown in the following table. • Acute symptoms: sore throat, cough, feeling hot and feverish • Major clinical symptoms: stuffy and runny nose, sore throat, cough, chills or shivering, feeling hot or feverish • Respiratory symptoms: stuffy and runny nose, sore throat, cough, shortness of breath (difficulty breathing) • Systemic symptoms: low energy and tiredness, muscle or body aches, headache, chills or shivering, feeling hot or feverish • Gastrointestinal symptoms: nausea, vomiting, diarrhea

[1] = ITT population, 375/125 mg group
[2] = ITT population, 750/250 mg group

Cn1cnc(Cn2c(=O)[nH]/c(=N\c3cc4cn(C)nc4cc3Cl)n(Cc3cc(F)c(F)cc3F)c2=O)n1 [(6E)-6-[(6-chloro-2-methyl-2H-indazol-5-yl)imino]-3-[(1-methyl-1H-1,2,4-triazol-3-yl)methyl]-1-[(2,4,5-trifluorophenyl)methyl]-1,3,5-triazinane-2,4-dione]
Respiratory symptoms sub-total score as compared with the placebo group (375/125 mg group (p=0.0153) and 750/250 mg group (p=0.0032)): a significant improving effect was observed
Change up to 120 hours in total score of 12 COVID-19 symptoms per unit time as compared with the placebo group (375/125 mg group and 750/250 mg group): a numerical decrease tendency was observed as compared with the placebo group, but a statistically significant difference was not observed
Change from baseline up to 120 hours in sub-total score per unit time, acute symptoms: Adjusted mean value by covariance analysis (standard error) [1]: −2.36 (0.10)
Change from baseline up to 120 hours in sub-total score per unit time, acute symptoms: Difference of adjusted mean value from that of placebo group (standard error) [1]: −0.20 (0.12)
Change from baseline up to 120 hours in sub-total score per unit time, acute symptoms: Maximum value [1]: 0.45
Change from baseline up to 120 hours in sub-total score per unit time, acute symptoms: Mean value [1]: −2.52
Change from baseline up to 120 hours in sub-total score per unit time, acute symptoms: Median value [1]: −2.55
Change from baseline up to 120 hours in sub-total score per unit time, acute symptoms: Minimum value [1]: −6.19
Change from baseline up to 120 hours in sub-total score per unit time, gastrointestinal symptoms: Adjusted mean value by covariance analysis (standard error) [1]: −1.27 (0.14)
Change from baseline up to 120 hours in sub-total score per unit time, gastrointestinal symptoms: Difference of adjusted mean value from that of placebo group (standard error) [1]: 0.06 (0.18)
Change from baseline up to 120 hours in sub-total score per unit time, gastrointestinal symptoms: Maximum value [1]: −0.16
Change from baseline up to 120 hours in sub-total score per unit time, gastrointestinal symptoms: Mean value [1]: −1.39
Change from baseline up to 120 hours in sub-total score per unit time, gastrointestinal symptoms: Median value [1]: −0.99
Change from baseline up to 120 hours in sub-total score per unit time, gastrointestinal symptoms: Minimum value [1]: −5.80
Change from baseline up to 120 hours in sub-total score per unit time, major clinical symptoms: Adjusted mean value by covariance analysis (standard error) [1]: −3.34 (0.14)
Change from baseline up to 120 hours in sub-total score per unit time, major clinical symptoms: Difference of adjusted mean value from that of placebo group (standard error) [1]: −0.34 (0.17)
Change from baseline up to 120 hours in sub-total score per unit time, major clinical symptoms: Maximum value [1]: 0.55
Change from baseline up to 120 hours in sub-total score per unit time, major clinical symptoms: Mean value [1]: −3.56
Change from baseline up to 120 hours in sub-total score per unit time, major clinical symptoms: Median value [1]: −3.33
Change from baseline up to 120 hours in sub-total score per unit time, major clinical symptoms: Minimum value [1]: −9.76
Change from baseline up to 120 hours in sub-total score per unit time, respiratory symptoms: Adjusted mean value by covariance analysis (standard error) [1]: −2.09 (0.12)
Change from baseline up to 120 hours in sub-total score per unit time, respiratory symptoms: Difference of adjusted mean value from that of placebo group (standard error) [1]: −0.37 (0.15)
Change from baseline up to 120 hours in sub-total score per unit time, respiratory symptoms: Maximum value [1]: 1.30
Change from baseline up to 120 hours in sub-total score per unit time, respiratory symptoms: Mean value [1]: −2.28
Change from baseline up to 120 hours in sub-total score per unit time, respiratory symptoms: Median value [1]: −1.99
Change from baseline up to 120 hours in sub-total score per unit time, respiratory symptoms: Minimum value [1]: −6.44
Change from baseline up to 120 hours in sub-total score per unit time, systemic symptoms: Adjusted mean value by covariance analysis (standard error) [1]: −3.31 (0.14)
Change from baseline up to 120 hours in sub-total score per unit time, systemic symptoms: Difference of adjusted mean value from that of placebo group (standard error) [1]: 0.15 (0.18)
Change from baseline up to 120 hours in sub-total score per unit time, systemic symptoms: Maximum value [1]: 1.80
Change from baseline up to 120 hours in sub-total score per unit time, systemic symptoms: Mean value [1]: −3.71
Change from baseline up to 120 hours in sub-total score per unit time, systemic symptoms: Median value [1]: −3.18
Change from baseline up to 120 hours in sub-total score per unit time, systemic symptoms: Minimum value [1]: −14.30
Change from baseline up to 120 hours in sub-total score per unit time, acute symptoms: Adjusted mean value by covariance analysis (standard error) [2]: −2.50 (0.10)
Change from baseline up to 120 hours in sub-total score per unit time, acute symptoms: Difference of adjusted mean value from that of placebo group (standard error) [2]: −0.33 (0.12)
Change from baseline up to 120 hours in sub-total score per unit time, acute symptoms: Maximum value [2]: 0.52
Change from baseline up to 120 hours in sub-total score per unit time, acute symptoms: Mean value [2]: −2.63
Change from baseline up to 120 hours in sub-total score per unit time, acute symptoms: Median value [2]: −2.71
Change from baseline up to 120 hours in sub-total score per unit time, acute symptoms: Minimum value [2]: −6.93
Change from baseline up to 120 hours in sub-total score per unit time, gastrointestinal symptoms: Adjusted mean value by covariance analysis (standard error) [2]: −1.08 (0.14)
Change from baseline up to 120 hours in sub-total score per unit time, gastrointestinal symptoms: Difference of adjusted mean value from that of placebo group (standard error) [2]: 0.25 (0.18)
Change from baseline up to 120 hours in sub-total score per unit time, gastrointestinal symptoms: Maximum value [2]: 0.50
